# pIC50: −log10 of the molar value. “And” between values parts separate entries of the source, which are not always exact repeats. Identical values can stand only once.
# Assays:
# [1] = Nitroxyl donation pH; type: physicochemical
# From the text: “Nitroxyl donation pH” is the pH at which and above which a nitroxyl-donating compounds donates nitroxyl.
# Further, compounds are easily tested for nitroxyl donation with routine experiments. Although it is impractical to directly measure whether nitroxyl is donated, several tests are accepted for determining whether a compound donates nitroxyl. For example, the compound of interest can be placed in solution, for example in water, in a sealed container. After sufficient time for disassociation has elapsed, such as from several minutes to several hours, the headspace gas is withdrawn and analyzed to determine its composition, such as by gas chromatography and/or mass spectroscopy. […] Nitroxyl donation also can be detected by exposing the target donor to metmyoglobin (Mb^3+). Nitroxyl reacts with Mb^3+ to form an Mb^2+—NO complex, which can be detected by changes in the ultraviolet/visible spectrum or by Electron Paramagnetic Resonance (EPR). […]
# Testing for nitroxyl donation in some cases is performed at a range of pHs to determine the nitroxyl donation pH of the nitroxyl-donating compound. […] After the lowest pH at which nitroxyl donation occurs in a first set of tests is found, additional tests can be performed with narrower ranges of pH around the first determined nitroxyl donation pH to obtain a more specific nitroxyl donation pH. […]
# [2] = molecular target: T1, COX-1 (Ovis aries, UniProt P05979); assay: COX-1 inhibition, prostaglandin (PGF2α) enzyme immunoassay; type: biochemical
# T1 construct: purchased Cayman Chemical #560101
# T1 sequence (P05979 25-600): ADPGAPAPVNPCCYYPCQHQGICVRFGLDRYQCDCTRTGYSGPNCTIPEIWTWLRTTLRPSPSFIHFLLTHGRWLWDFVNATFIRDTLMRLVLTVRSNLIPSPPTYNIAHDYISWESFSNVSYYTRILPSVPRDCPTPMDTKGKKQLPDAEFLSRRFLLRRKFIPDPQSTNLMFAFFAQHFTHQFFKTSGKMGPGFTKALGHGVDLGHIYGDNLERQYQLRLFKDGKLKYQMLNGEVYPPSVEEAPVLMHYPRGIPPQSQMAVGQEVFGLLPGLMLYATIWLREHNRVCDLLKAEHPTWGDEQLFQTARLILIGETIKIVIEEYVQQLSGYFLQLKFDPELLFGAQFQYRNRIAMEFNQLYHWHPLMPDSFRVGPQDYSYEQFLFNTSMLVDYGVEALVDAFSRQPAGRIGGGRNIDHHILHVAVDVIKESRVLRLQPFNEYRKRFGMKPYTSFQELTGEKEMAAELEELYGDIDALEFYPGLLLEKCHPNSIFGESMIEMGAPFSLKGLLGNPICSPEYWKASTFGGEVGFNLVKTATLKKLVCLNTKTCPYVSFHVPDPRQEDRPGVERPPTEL
# From the text: (§1) In some cases, screening in the latter method (measuring prostaglandin production) is accomplished using an enzyme immunoassay (EIA) where COX systems include COX-1 or COX-2, an EIA reaction buffer, Heme, and either a control solution, such as NaOH, for control systems or inhibitor solutions of the nitroxyl donor in NaOH having a range of progressively increasing concentrations of the nitroxyl-donating compound. These systems are reacted with arachidonic acid for a period typically of about five to ten minutes. The COX reactions are stopped in each system, for example, by the addition of hydrochloric acid (HCl).
# (§2) The relative amounts prostaglandins, such as PGF2α, in each system are measured with an EIA kit. The EIA measures the amounts of prostaglandins in the systems based on binding to an assay antibody. Binding is determined by absorbance, for example, absorbance at 405 nm, with a plate reader, such as a Perkin Elmer plate reader. High binding results in low absorbance indicating low inhibition, while low binding results in high absorbance indicating high inhibition.
# (§3) Once the inhibitor and control systems are prepared they are diluted in the EIA buffer at various dilution ratios, such as 1:1000, 1:2000, and 1:4000 and added to wells of the plate. The plate also contains prostaglandin (PG) standard systems, non-specific binding (NSB) systems, background COX systems, and zero binding (B0) systems, which are used to calibrate the EIA. PG standard systems are prepared at various progressively increasing concentrations of PG, for example 15.6, 31.3, 62.5, 125, 250, 500, 1000, and 2000 PG/mL. Background COX systems contain either boiled COX-1 or COX-2 diluted in EIA reaction buffer. NSB, and B0 systems include only the EIA buffer. Prostaglandin screening acetylcholinase tracer (reconstituted in the EIA buffer) is added to each system. Prostaglandin screening antiserum (reconstituted in the EIA buffer) is added to each system other than the NSB system. Typically, the plate is incubated from several hours to a day, such as from 4 to 24 hours at room temperature (about 22° C.). Ellman's reagent is added to each system in each well and the plate is agitated, such as on an orbital shaker, and protected from light, for example by covering with aluminum foil, for about an hour. The plate is then read on a plate reader, such as a Perkin Elmer plate reader.
# (§4) An average value for the absorbance of the NSB systems is determined and this absorbance is used to correct the reading of other systems for NSB (by subtracting the average NSB absorbance). An average value for the absorbance of background COX also is determined and absorbance is later used to correct other systems for background COX levels.
# (§5) An average value for B0 is obtained and NSB corrected. Average values for absorbance of each PG standard system are obtained and NSB corrected. The percentage of prostanoid binding is determined by dividing the average NSB corrected absorbance (binding (B)) for each PG standard system by the average NSB corrected absorbance for B0 systems (percentage equals B/B0*100). A standard curve is prepared with % B/B0 on the y axis and the prostaglandin concentration (PG/mL) on the x axis. Then the average % B/B0 for the background, control, and inhibitor systems are determined for each concentration tested. The PG concentration for each of these systems is determined by finding the point on the standard curve that corresponds to the determined % B/B0, determining the corresponding PG concentration on the x axis, and multiplying this concentration by the dilution factor used to prepare the system. To correct for background COX the PG concentration of the background COX-1 or COX-2 systems are subtracted from the COX-1 and COX-2 inhibitor and control systems, respectively. The percentage of inhibition is determined dividing the PG concentration for inhibitor systems by the PG concentration for control systems and multiplying by 100. […]
# [3] = molecular target: T2, COX-2 (Ovis aries, UniProt P79208); assay: COX-2 inhibition, prostaglandin (PGF2α) enzyme immunoassay; type: biochemical
# T2 construct: purchased Cayman Chemical #560101
# T2 sequence (P79208 17-603): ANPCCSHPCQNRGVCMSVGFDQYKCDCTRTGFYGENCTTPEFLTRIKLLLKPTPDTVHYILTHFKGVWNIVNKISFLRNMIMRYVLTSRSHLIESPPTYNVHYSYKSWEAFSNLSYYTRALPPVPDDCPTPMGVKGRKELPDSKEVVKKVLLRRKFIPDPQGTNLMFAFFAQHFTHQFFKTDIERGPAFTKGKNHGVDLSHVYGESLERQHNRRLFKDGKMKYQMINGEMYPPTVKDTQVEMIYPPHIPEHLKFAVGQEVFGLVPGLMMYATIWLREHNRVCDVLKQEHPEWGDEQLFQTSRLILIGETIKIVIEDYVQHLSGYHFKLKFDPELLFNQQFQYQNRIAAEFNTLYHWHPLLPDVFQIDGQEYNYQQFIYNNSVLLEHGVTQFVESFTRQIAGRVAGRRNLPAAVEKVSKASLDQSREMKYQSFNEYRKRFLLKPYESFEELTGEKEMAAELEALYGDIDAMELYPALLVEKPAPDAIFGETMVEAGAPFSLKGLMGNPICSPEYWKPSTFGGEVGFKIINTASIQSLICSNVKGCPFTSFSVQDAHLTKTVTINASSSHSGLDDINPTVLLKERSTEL
# From the text: as §1, §2, §3, §4, §5
# [4] = Example 1, Angeli's salt concentration 0.001 μM, 1:2000 dilution
# [5] = Example 1, Angeli's salt concentration 1.0 μM, 1:2000 dilution
# [6] = Example 1, Angeli's salt concentration 10.0 μM, 1:2000 dilution
# [7] = Example 1, Angeli's salt concentration 500.0 μM, 1:2000 dilution
# [8] = Example 2, Angeli's salt concentration 0.100 μM, data below about 50 μM called unreliable
# [9] = Example 2, Angeli's salt concentration 100.0 μM
# [10] = Example 2, Angeli's salt concentration 500.0 μM
# [11] = Example 2, Angeli's salt concentration 1000.0 μM
# [12] = Example 3, nitroxyl donor concentration 25 μM
# [13] = Example 3, nitroxyl donor concentration 50 μM
# [14] = Example 3, nitroxyl donor concentration 75 μM
# [15] = Example 3, nitroxyl donor concentration 100 μM
# [16] = Example 3, nitroxyl donor concentration 1000 μM
structure (smiles),measurement,setting,value
"[Na+].[Na+].[O-][N+]([O-])=NO [Angeli's salt, Na2ON(O)NO]",nitroxyl donation pH (pH at which and above which nitroxyl is donated),[1],about 3
same,pIC50,"[2]; Example 1, read from FIG. 1",~3.22
same,Percentage COX-1 Inhibition,[2]; [4],0.0%
same,Percentage COX-1 Inhibition,[2]; [5],0.0%
same,Percentage COX-1 Inhibition,[2]; [6],0.0%
same,Percentage COX-1 Inhibition,"[2]; Example 1, Angeli's salt concentration 100.0 μM, 1:2000 dilution",18.3%
same,Percentage COX-1 Inhibition,[2]; [7],40.2%
same,Percentage COX-1 Inhibition,"[2]; Example 1, Angeli's salt concentration 1000.0 μM, 1:2000 dilution",95.4%
same,COX-1 activity inhibited,"[2]; Example 1, concentrations from about 50 μM to about 100 μM",≤ 19%
same,pIC50,"[2]; Example 2, reasonable estimate",3.60 to 3.70
same,Percentage COX-1 Inhibition,"[2]; Example 2, Angeli's salt concentration 0.001 μM, data below about 50 μM called unreliable",97.5%
same,Percentage COX-1 Inhibition,[2]; [8],24.7%
same,Percentage COX-1 Inhibition,"[2]; Example 2, Angeli's salt concentration 1.0 μM, data below about 50 μM called unreliable",57.5%
same,Percentage COX-1 Inhibition,"[2]; Example 2, Angeli's salt concentration 50.0 μM",16.4%
same,Percentage COX-1 Inhibition,[2]; [9],45.7%
same,Percentage COX-1 Inhibition,[2]; [10],62.5%
same,Percentage COX-1 Inhibition,[2]; [11],68.6%
same,COX-1/COX-2 IC50 ratio,[3]; Example 1,about 0.08
same,pIC50,"[3]; Example 1, read from FIG. 1",~4.30
same,Percentage COX-2 inhibition,[3]; [4],0.0%
same,Percentage COX-2 inhibition,[3]; [5],34.6%
same,Percentage COX-2 inhibition,[3]; [6],28.8%
same,Percentage COX-2 inhibition,"[3]; Example 1, Angeli's salt concentration 100.0 μM, 1:2000 dilution, 100 µM",100% and 99.2%
same,Percentage COX-2 inhibition,[3]; [7],86.4%
same,pIC50,"[3]; Example 2, reasonable estimate",~4.30
same,Percentage COX-2 inhibition,[3]; [8],98.9%
same,Percentage COX-2 inhibition,[3]; [9],98%
same,Percentage COX-2 inhibition,[3]; [10],105.7%
same,Percentage COX-2 inhibition,[3]; [11],106%
same,Percentage COX-2 inhibition,[3]; [12],5.4%
same,Percentage COX-2 inhibition,[3]; [13],13.7%
same,Percentage COX-2 inhibition,[3]; [14],49.2%
same,Percentage COX-2 inhibition,[3]; [15],59.9%
same,Percentage COX-2 inhibition,[3]; [16],60.4%
same,COX-2/COX-1 IC50 ratio,[3]; one particular example (detailed description),about 0.08
"CC(C)N[N+]([O-])=N[O-].[Na+] [IPA/NO, Na(CH3)2C(H)N(H)N(O)NO]",nitroxyl donation pH (pH at which and above which nitroxyl is donated),[1],about 5.5
same,"COX-2 inhibition, overall trend compared to Angeli's salt","[3]; Example 3, 25 to 1000 μM",more effective inhibitor of COX-2 than Angeli's salt
same,Percentage COX-2 inhibition,[3]; [12],6.7%
same,Percentage COX-2 inhibition,[3]; [13],59.5%
same,Percentage COX-2 inhibition,[3]; [14],46.4%
same,Percentage COX-2 inhibition,[3]; [15],62.2%
same,Percentage COX-2 inhibition,[3]; [16],86.8%
